Laboratory results: patent US20090299063A1, “Inhibitors for Extracellular Signal-Regulated Kinase Docking Domains and Uses Therefor” (priority 2005, published 2009)
“Also recorded” adds a separate entry of the source.

Assays:
[1] = system: ERK-mediated phosphorylation of Rsk-1 on Thr573; experiment: ERK-mediated Rsk-1 phosphorylation, immunoblot of EGF-stimulated HeLa cells; format: cell-based, human
[2] = system: HeLa cells; experiment: Colony formation assay, HeLa cells; format: cell-based, human; details: FIG. 8A, 10 cm plates, 100 mM (printed) compound
Description: (§1) HeLa, A549, or SUM-159 cells were plated at a low density of 200-400 cells per well in the absence or presence of putative ERK docking domain inhibitors. Cell colonies were stained with crystal violet and counted after 6-10 days. In FIG. 8A cells were grown on 10 cm plates in the absence (−) or presence of […] of compound 67, 36, 68, 81, or 76. Colony formation dose response in the presence of the indicated concentrations of compound 76 (closed squares) or 81 (open squares) for Hela cells ([…]) (FIG. 8B), A549 cells (50 mM) (FIG. 8C), or SUM-159 cells (50 mM) (FIG. 8D).
(§2) Two methods were used to determine cell proliferation and survival based on colony formation. First, HeLa cells were grown to 70-80% confluence and then treated for 16 hours in the absence (DMSO only) or presence of active compounds. The next day cells were trypsinized, replated (1000-2000 cells per 10 cm culture dish) in regular media and allowed to grow for 8-14 days. Cells then were fixed for 10 minutes in 4% paraformaldehyde and stained with 0.2% crystal violet (in 20% methanol) for 1-2 minutes. Cells were washed several times with distilled water and colonies formed of at least 40 cells were counted. In the second method, growing cells were trypsinized and replated (500-1000 cells per 35 or 60 mm well, respectively) in the presence or absence of various concentrations of the test compounds. Following incubation for 8-14 days, cells were fixed, stained with crystal violet, and counted as described above.
The effects of the active compounds on cell proliferation and survival were tested using a colony formation assay.
(§3) Thus, several test compounds that show maximal inhibition of ERK substrates are also effective inhibitors of proliferation in cultured cancer cell lines.

[3] = system: ERK-specific phosphorylation of Elk-1 on Ser383; experiment: ERK-mediated Elk-1 phosphorylation, immunoblot of EGF-stimulated HeLa cells; format: cell-based, human
Description: (§4) In FIGS. […] The far left lane is the control (−) with no EGF. […] The control (C) is EGF only treatment. In FIG. 4B cells pretreated with increasing concentrations of compound 76 were stimulated with EGF. ELK-1 phosphorylation on Ser383 (pELK-1) was measured by immunoblotting. […] Protein lysates were separated by SDS-PAGE and immunoblotted simultaneously for phosphorylated ELK-1 (pELK-1, Ser383), dually phosphorylated ERK1/2 (ppERK1/2), and a-tubulin as a protein loading control. […] The control (C) is EGF only treatment.
(§5) The lysates then were diluted with an equal volume of 2× SDS-sample buffer and the proteins were separated on SDS-PAGE for immunoblot analysis. Immunoblot analysis was done as previously described (41-43).
Compounds that were identified using the 3D structure of phosphorylated ERK2 also were tested.

[4] = system: dually phosphorylated ERK1/2 (ppERK1/2); experiment: ERK1/2 phosphorylation on activating sites (ppERK1/2), immunoblot of EGF-stimulated HeLa cells; format: cell-based, human
Description: as §4, with “FIGS. 4A-4B HeLa cells were treated with EGF for 5 minutes with or without […] of test compounds.” for “FIGS.”
as §5

[5] = target: T1, ERK2 (Mus musculus, UniProt P63085); experiment: ERK2 fluorescence titration (quenching of intrinsic fluorescence); format: binding; details: for quenching of ERK2 fluorescence (in words): wild type ERK2, excitation 295 nm
T1 construct: (His)6; made in house; host or cells: bacteria
Source text: ERK2 was purified as described previously (46) with some modifications. Briefly, (His)6-tagged ERK2 was expressed in bacteria and the cells were harvested in BugBuster protein extraction reagent (EMD Biosciences, San Diego, Calif.). Clarified lysates were loaded onto a Talon Co^2+-IMAC affinity chromatography resin column (BD Biosciences, San Jose, Calif.) and the bound protein was eluted using increasing concentrations of imidazole. SDS-PAGE electrophoresis and Coomassie blue staining were used to identify the eluted fractions containing the ERK2 protein. The ERK2 protein concentration was determined using Bradford Reagent (Sigma).
Experiments will measure the changes in the intrinsic ERK2 fluorescence due to the presence of aromatic amino acids, with the indole group of tryptophan being the major fluorophore with absorption and emission maxima around 280 and 340 nanometers (nm), respectively. Fluorescence spectra were recorded with a Luminescence Spectrometer LS50 (Perkin Elmer, Boston, Mass.). For all experiments, ERK2 protein was diluted into 20 mM Tris-HCl, pH 7.5. Titrations were performed by increasing the test compound concentration while maintaining the ERK2 protein concentration at […]. […] The excitation wavelength was 295 nm and fluorescence was monitored from 300 to 500 nm. All reported fluorescence intensities are relative values and are not corrected for wavelength variations in detector response. Dissociation constants, KD, were determined using reciprocal plots, 1/v vs 1/[I], where v represents the percent occupied sites calculated assuming fluorescence quenching to be directly proportion to the percentage of occupied binding sites, [1] represents the concentration of the inhibitor compound and the slope of the curve equals the KD (48-49).
ERK2 contains three tryptophans, which have intrinsic fluorescence.

[6] = system: SUM-159 estrogen-receptor negative breast cancer cell line; experiment: Colony formation assay, SUM-159 cells; format: cell-based, human; details: SUM-159, FIG. 8D
Description: as §1
as §2, with “In the second method, growing cells were trypsinized and replated (500-1000 cells per 35 or 60 mm well, respectively) in the presence or absence of various concentrations of the test compounds.” left out, “above. […]” for “above.”

[7] = system: HT1080 fibrosarcoma cells; experiment: Cell proliferation, HT1080 cells; format: cell-based, human; details: HT1080, data not shown
Description: as §2, §3

[8] = system: colony formation; experiment: Colony formation assay of compounds 86-98 (cell line not given); format: cell-based; details: Table 3
Description: Cell colonies were stained with crystal violet and counted after 6-10 days.
Cells then were fixed for 10 minutes in 4% paraformaldehyde and stained with 0.2% crystal violet (in 20% methanol) for 1-2 minutes.

[9] = increasing doses of compound, EGF stimulation
[10] = 75 mM (printed) test compound 30 minutes, EGF 5 minutes

T1 sequence (P63085 whole entry): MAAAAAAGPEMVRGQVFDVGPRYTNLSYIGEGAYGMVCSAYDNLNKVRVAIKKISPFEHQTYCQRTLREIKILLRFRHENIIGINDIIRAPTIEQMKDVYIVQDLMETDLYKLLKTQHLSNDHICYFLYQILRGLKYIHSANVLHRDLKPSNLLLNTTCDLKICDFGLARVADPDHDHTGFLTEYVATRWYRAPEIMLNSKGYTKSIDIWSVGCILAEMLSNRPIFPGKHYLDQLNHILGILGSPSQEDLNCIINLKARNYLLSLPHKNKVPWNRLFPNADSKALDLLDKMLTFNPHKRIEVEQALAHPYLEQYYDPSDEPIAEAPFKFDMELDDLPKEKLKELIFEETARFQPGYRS

Row | Compound | effect on ERK-mediated Rsk-1 phosphorylation (in words) [1] | effect on colony formation / cell proliferation (in words) [2] | effect on ERK-mediated Elk-1 phosphorylation (Ser383) [3, 9] | effect on ERK1/2 phosphorylation on its activating sites [4, 9] | y-intercept of reciprocal plot (indicating a single binding site) ([5]; wild type ERK2) | quenching of ERK2 fluorescence (in words) [5] | inhibition of cell proliferation (in words) [6] | inhibition of cell proliferation (in words) [7] | effect on EGF-mediated ELK-1 phosphorylation (Ser383) [3, 10] | effect on ERK1/2 phosphorylation (ppERK1/2) [4, 10] | IC50 [8] [µM]
1 | N=C(N)Nc1nc(C2COc3ccccc3O2)cs1 (stereo not drawn) [Compound 36] | little effect on ERK substrate phosphorylation; also recorded: little effect on ERK-mediated Rsk-1 phosphorylation | subtle inhibition of colony formation; also recorded: little effect on colony formation |  |  |  |  |  |  |  |  | 
2 | CCOc1ccc(C=C2SC(=O)N(CCN)C2=O)cc1 [Compound 76] | highest inhibition of Rsk-1 phosphorylation | completely inhibited cell proliferation | inhibited ERK-mediated Elk-1 phosphorylation | largely unaffected | 1.8 | strong quenching of fluorescence | inhibition of cell proliferation | inhibition of cell proliferation |  |  | 
3 | O=C(CCN1CCN(C/C=C/c2ccccc2)CC1)Nc1ccc(Cl)cc1 [Compound 81] |  | completely inhibited cell proliferation |  |  |  | quenching only occurs to a small extent at the higher concentrations | inhibition of cell proliferation | inhibition of cell proliferation |  |  | 
4 | COc1cc(C=C2NC(=O)NC2=O)ccc1OCc1ccc(Br)cc1 [Compound 95] |  |  |  |  |  | quenched ERK2 fluorescence; also recorded: more effective in quenching |  |  | showed evidence for inhibiting ERK-mediated ELK-1 phosphorylation; also recorded: inhibited EGF-mediated ELK-1 phosphorylation | little effect on ERK1/2 phosphorylation | > 100
